Measured values: patent US12690589B2, “Herbicidal compositions comprising pyroxasulfone” (BASF SE, priority 2024, dated 2026)

Columns and labels:
Assay in all cases: Post-emergence application in field trials, herbicidal activity (damage scale 0 to 100%)
Assay type in all cases: in vivo
[1] = tested on: Echinochloa crus-galli (ECHCG)
Description: (§1) In the examples below, using the method of S. R. Colby (1967) “Calculating synergistic and antagonistic responses of herbicide combinations”, Weeds 15, p. 22ff., the value E, which is expected if the activity of the individual active compounds is only additive, was calculated:
(§2) [formula] • wherein • X=percent activity using active herbicide A at an application rate a; • Y=percent activity using active herbicide B (e.g. pyroxasulfone) at an application rate b; • E=expected activity (in %) by A+B at application rates a+b.
(§3) If the value found experimentally is higher than the value E calculated according to Colby, a synergistic effect is present.
(§4) On field test sites, natural weed infestation or seeded weeds were treated post-emergence of the weeds.
(§5) In the field trials, the weeds were treated as indicated below.
(§6) In the following experiments, the herbicidal activity for the individual herbicidal compositions (solo and mixture applications) was assessed at the indicated days after treatment (DAT). The assessments for the damage on undesired weeds caused by the composition was carried out using a scale from 0 to 100%, compared to the untreated control plants. Here, 0 means no damage and 100 means complete destruction of the plants.
Herbicide A-1 (50 g/l) and pyroxasulfone (85% WG) were, together with addition of 0.5% MSO (methylated seed oil) as adjuvant, formulated in water as distribution medium (water volume 200 l/ha) and sprayed with commercial flat fan nozzles.

[2] = tested on: Lolium multiflorum (LOLMU)
Description: as §1, §2
(§7) For 3-component mixtures the synergistic response was calculated as described in: Ferry, Nancy; Stanley, Bruce H.; and Armel, Gregory (2005). “DESIGN AND ANALYSIS OF BIOLOGICAL ASSAYS OF MIXTURES,” Conference on Applied Statistics in Agriculture. https://doi.org/10.4148/2475-7772.1133. According to this publication, the Colby calculation can be generalized to a third mixing partner, Z, employing the following formula: […]
as §3, §4, §5, §6
(§8) Herbicide A-1 (342 g/l) and pyroxasulfone (500 g/l) were, together with addition of 0.25 v/v % MSO (methylated seed oil) as adjuvant, formulated in 200 l/ha water as distribution medium and sprayed with commercial flat fan nozzles.
(§9) Herbicide A-1 (342 g/l), pyroxasulfone (500 g/l) and trifludimoxazin (500 g/l) were, together with addition of 0.25 v/v % MSO (methylated seed oil) as adjuvant, formulated in 200 l/ha water as distribution medium and sprayed with commercial flat fan nozzles.
(§10) Herbicide A-1 (342 g/I), pyroxasulfone (500 g/l) and glyphosate-isopropylammonium (356 g/l) were, together with addition of 0.25 v/v % MSO (methylated seed oil) as adjuvant, formulated in 200 l/ha water as distribution medium and sprayed with commercial flat fan nozzles.
(§11) Herbicide A-1 (342 g/l), pyroxasulfone (500 g/l) and glufosinate-P-ammonium (211 g/l) were, together with addition of 0.25 v/v % MSO (methylated seed oil) as adjuvant, formulated in 200 l/ha water as distribution medium and sprayed with commercial flat fan nozzles.
(§12) Herbicide A-1 (342 g/l), pyroxasulfone (500 g/l) and 2,4-D-choline (456 g/l) were, together with addition of 0.25 v/v % MSO (methylated seed oil) as adjuvant, formulated in 200 l/ha water as distribution medium and sprayed with commercial flat fan nozzles.

[3] = tested on: Digitaria sanguinalis (DIGSA); settings: stage 22, height 10-15 cm
Description: as §1, §2, §7, §3, §4, §5, §6, §8, §9, §10, §11, §12

In the case of `CCOC(=O)COc1ccccc1Oc1nc(-n2c(=O)cc(C(F)(F)F)n(C)c2=O)c(F)cc1Cl` [A-1, ethyl 2-[2-[[3-chloro-5-fluoro-6-[3-methyl-2,6-dioxo-4-(trifluoromethyl)pyrimidin-1-yl]-2-pyridyl]oxy]phenoxy]acetate], the “% Herbicidal activity” value ([1]; 7 DAT, stage 23-30, height 15-20 cm, g ai/ha A-1 12.5, B 70, C-12 252) is reported as 30%, the “% Herbicidal activity” value ([1]; 21 DAT, stage 23-30, height 15-20 cm, g ai/ha A-1 12.5, B 70, C-12 252) is reported as 30% and the “% Herbicidal activity” value ([1]; 28 DAT, stage 23-30, height 15-20 cm, g ai/ha A-1 12.5, B 70, C-12 252) is reported as 30%. For the same compound, the “% Herbicidal activity” value ([1]; ECHCG, height 20-25 cm, A-1 25 g ai/ha, 21 DAT, Table 2.3) was 60%, the “% Herbicidal activity” value ([1]; Table 8.2, 21 DAT, stage 23-30, height 15-20 cm, g ai/ha A-1 18, B 70, C-12 1066) was 30% and the “% Herbicidal activity” value ([1]; Table 8.2, 21 DAT, stage 23-30, height 15-20 cm, g ai/ha A-1 18, B 90, C-12 1066) was 30%. The “% Herbicidal activity” value ([1]; Table 8.3, 28 DAT, stage 23-30, height 15-20 cm, g ai/ha A-1 18, B 70, C-12 1066) was 30%, the “% Herbicidal activity” value ([1]; Table 8.3, 28 DAT, stage 23-30, height 15-20 cm, g ai/ha A-1 18, B 90, C-12 1066) was 30% and the “% Herbicidal activity” value ([2]; 7 DAT, stage 22-25, height 20-25 cm, g ai/ha A-1 12.5, B 70, C-12 252) was 60%. For the same compound, the “% Herbicidal activity” value ([2]; 7 DAT, stage 22-25, height 20-25 cm, g ai/ha A-1 18, B 70, C-12 252) was 60%, the “% Herbicidal activity” value ([2]; 7 DAT, stage 22-25, height 20-25 cm, g ai/ha A-1 18, B 90, C-12 252) was 60% and the “% Herbicidal activity” value ([2]; 21 DAT, stage 22-25, height 20-25 cm, g ai/ha A-1 12.5, B 70, C-12 252) was 40%. The “% Herbicidal activity” value ([2]; 21 DAT, stage 22-25, height 20-25 cm, g ai/ha A-1 18, B 70, C-12 252) was 40%, the “% Herbicidal activity” value ([2]; 21 DAT, stage 22-25, height 20-25 cm, g ai/ha A-1 18, B 90, C-12 252) was 40% and the “% Herbicidal activity” value ([2]; 28 DAT, stage 22-25, height 20-25 cm, g ai/ha A-1 12.5, B 70, C-12 252) was 40%. The “% Herbicidal activity” value ([2]; 28 DAT, stage 22-25, height 20-25 cm, g ai/ha A-1 18, B 70, C-12 252) was 40%, the “% Herbicidal activity” value ([2]; 28 DAT, stage 22-25, height 20-25 cm, g ai/ha A-1 18, B 90, C-12 252) was 40% and the “% Herbicidal activity” value ([2]; LOLMU, growth stage 22-25, height 20-25 cm, A-1 18 g ai/ha, 7 DAT, Table 4.2) was 60%. The “% Herbicidal activity” value ([2]; LOLMU, growth stage 22-25, height 20-25 cm, A-1 18 g ai/ha, 21 DAT, Table 4.4) was 60%, the “% Herbicidal activity” value ([3]; 7 DAT, g ai/ha A-1 12.5, B 70, C-4 12.5) was 80% and the “% Herbicidal activity” value ([3]; 7 DAT, g ai/ha A-1 18, B 70, C-4 12.5) was 85%. The “% Herbicidal activity” value ([3]; 7 DAT, g ai/ha A-1 18, B 70, C-8 840) was 80%, the “% Herbicidal activity” value ([3]; 7 DAT, g ai/ha A-1 18, B 70, C-12 252) was 85% and the “% Herbicidal activity” value ([3]; 7 DAT, g ai/ha A-1 18, B 90, C-4 12.5) was 85%. For the same compound, the “% Herbicidal activity” value ([3]; 7 DAT, g ai/ha A-1 18, B 90, C-8 840) was 80%, the “% Herbicidal activity” value ([3]; 7 DAT, g ai/ha A-1 18, B 90, C-12 252) was 85% and the “% Herbicidal activity” value ([3]; 21 DAT, g ai/ha A-1 12.5, B 70, C-4 12.5) was 70%. The “% Herbicidal activity” value ([3]; 21 DAT, g ai/ha A-1 18, B 70, C-4 12.5) was 80%, the “% Herbicidal activity” value ([3]; 21 DAT, g ai/ha A-1 18, B 70, C-12 252) was 85% and the “% Herbicidal activity” value ([3]; 21 DAT, g ai/ha A-1 18, B 90, C-4 12.5) was 80%. The “% Herbicidal activity” value ([3]; 21 DAT, g ai/ha A-1 18, B 90, C-12 252) was 85%, the “% Herbicidal activity” value ([3]; 42 DAT, g ai/ha A-1 12.5, B 70) was 65% and the “% Herbicidal activity” value ([3]; 42 DAT, g ai/ha A-1 12.5, B 70, C-4 12.5) was 60%. For the same compound, the “% Herbicidal activity” value ([3]; 42 DAT, g ai/ha A-1 18, B 70) was 80%, the “% Herbicidal activity” value ([3]; 42 DAT, g ai/ha A-1 18, B 70, C-4 12.5) was 70% and the “% Herbicidal activity” value ([3]; 42 DAT, g ai/ha A-1 18, B 70, C-12 252) was 70%. For the same compound, the “% Herbicidal activity” value ([3]; 42 DAT, g ai/ha A-1 18, B 90) was 80%.
